Here are results for 24 molecules from US20260347338A1, “PYRIMIDINE/PYRIDINE DERIVATIVES OR SALTS THEREOF AND PHARMACEUTICAL COMPOSITIONS COMPRISING THE SAME” (YUHAN CORPORATION, priority 2023, published 2026).

Counter-ions that a name gives are not always drawn. A value given as a limit tells only on which side of the number the result lay.

The test has as its target T1, human recombinant HPK1 (Homo sapiens, UniProt Q92918).
T1 construct: purchased BPS Bioscience
Briefly: Inhibitory activity against human recombinant HPK1 (TR-FRET). The format is biochemical. The conditions noted are these: ULight-p70S6K peptide, ATP at Km, room temperature, 1 hour, 0.32 to 1000 nM compound. In a few lines: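 IC50 classes A–D use 10, 50 and 100 nM cut-offs, derived from TR-FRET signal inhibition relative to DMSO controls. Human recombinant HPK1 phosphorylated ULight-p70S6K peptide at Km ATP for 1 h, room temperature, pH 7.4; test range 0.32–1000 nM final, detection with Eu-labelled antibody after EDTA quench.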

T1 sequence (Q92918 whole entry): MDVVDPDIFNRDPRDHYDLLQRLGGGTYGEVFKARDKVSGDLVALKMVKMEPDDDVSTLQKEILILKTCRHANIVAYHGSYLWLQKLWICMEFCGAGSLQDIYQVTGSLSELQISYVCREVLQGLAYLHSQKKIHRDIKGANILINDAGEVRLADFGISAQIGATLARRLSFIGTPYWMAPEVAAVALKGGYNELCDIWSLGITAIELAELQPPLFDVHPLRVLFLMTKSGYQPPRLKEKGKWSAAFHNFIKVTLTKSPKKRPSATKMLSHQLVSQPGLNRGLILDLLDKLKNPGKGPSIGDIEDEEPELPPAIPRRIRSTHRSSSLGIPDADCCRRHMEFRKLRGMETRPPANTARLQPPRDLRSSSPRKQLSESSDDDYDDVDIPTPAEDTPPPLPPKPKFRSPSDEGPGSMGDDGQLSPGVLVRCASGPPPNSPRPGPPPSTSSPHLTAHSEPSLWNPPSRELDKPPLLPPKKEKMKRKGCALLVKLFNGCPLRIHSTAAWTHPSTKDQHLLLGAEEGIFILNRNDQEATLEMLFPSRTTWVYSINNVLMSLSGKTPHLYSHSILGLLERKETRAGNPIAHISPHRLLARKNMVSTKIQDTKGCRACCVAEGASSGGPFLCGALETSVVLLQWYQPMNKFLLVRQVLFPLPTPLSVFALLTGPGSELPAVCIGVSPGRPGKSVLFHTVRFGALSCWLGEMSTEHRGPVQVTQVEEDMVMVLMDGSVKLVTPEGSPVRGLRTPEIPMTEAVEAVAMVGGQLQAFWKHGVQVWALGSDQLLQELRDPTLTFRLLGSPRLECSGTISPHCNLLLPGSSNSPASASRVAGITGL

For the molecule `COc1cc(F)cc(F)c1-c1nccc(Nc2cc(N3CCC[C@H](O)C3)c(-c3cnn(C(F)(F)F)c3)cn2)n1` [Example 171, (S)-1-(2-((2-(2,4-difluoro-6-methoxyphenyl)pyrimidin-4-yl)amino)-5-(1-(trifluoromethyl)-1H-pyrazol-4-yl)pyridin-4-yl)piperidin-3-ol], the IC50 (as a rule, the concentration that gives 50% inhibition) is at most 10 nM.

As to `OC1CN(Cc2csc(-c3nccc(Nc4cc(N5CCC[C@H](O)C5)c(-c5cnn(C6CCOCC6)c5)cn4)n3)c2)C1` [Example 188, (S)-1-(2-((2-(4-((3-hydroxyazetidin-1-yl)methyl)thiophen-2-yl)pyrimidin-4-yl)amino)-5-(1-(tetrahydro-2H-pyran-4-yl)-1H-pyrazol-4-yl)pyridin-4-yl)piperidin-3-ol], the IC50 lay in the range of 10 to 50 nM.

Take `COc1cccc(F)c1-c1nccc(Nc2cc(N3CCC[C@H](N)C3)c(-c3ccc(C4CCN(C)CC4)nc3)cn2)n1` [Example 83, (S)-4-(3-aminopiperidin-1-yl)-N-(2-(2-fluoro-6-methoxyphenyl)pyrimidin-4-yl)-6′-(1-methylpiperidin-4-yl)-[3,3′-bipyridin]-6-amine hydrochloride]: the IC50 is at most 10 nM.

`COc1cccc(F)c1-c1nc(Nc2cc(N3CCC[C@H](O)C3)c(C(=O)N[C@@H]3CC[C@@H](N)C3)cn2)ccc1[N+](=O)[O-]` [Example 199, N-((1R,3R)-3-aminocyclopentyl)-6-((6-(2-fluoro-6-methoxyphenyl)-5-nitropyridin-2-yl)amino)-4-((S)-3-hydroxypiperidin-1-yl)nicotinamide hydrochloride]: the IC50 was at most 10 nM.

On to `COc1cccc(F)c1-c1nc(Nc2cc(N3CCC[C@H](N)C3)c(-c3cnn(C4CC4)c3)cn2)ccc1C#N` [Example 329, 6-((4-((S)-3-aminopiperidin-1-yl)-5-(1-cyclopropyl-1H-pyrazol-4-yl)pyridin-2-yl)amino)-2-(2-fluoro-6-methoxyphenyl)nicotinonitrile hydrochloride], for which the IC50 is at most 10 nM.

Regarding `COc1cccc(F)c1-c1nccc(Nc2cc(N3CCC(F)(CN(C)C)CC3)c(-c3cnn(C4CCOCC4)c3)cn2)n1` [Example 46, N-(4-(4-((dimethylamino)methyl)-4-fluoropiperidin-1-yl)-5-(1-(tetrahydro-2H-pyran-4-yl)-1H-pyrazol-4-yl)pyridin-2-yl)-2-(2-fluoro-6-methoxyphenyl)pyrimidin-4-amine], the IC50 was at most 10 nM.

`COCCn1cc(-c2cnc(Nc3ccc(C(N)=O)c(-c4c(F)cccc4OC)n3)cc2N2CCC[C@H](O)C2)cn1` [Example 144, 2-(2-fluoro-6-methoxyphenyl)-6-((4-((S)-3-hydroxypiperidin-1-yl)-5-(1-(2-methoxyethyl)-1H-pyrazol-4-yl)pyridin-2-yl)amino)nicotinamide]: the IC50 was at most 10 nM.

With `COc1cc(C(=O)N2CC(F)(F)C2)cc(F)c1-c1nccc(Nc2cc(N3CCC[C@H](O)C3)c(-c3cnn(C(F)F)c3)cn2)n1` [Example 231, (S)-(3,3-difluoroazetidin-1-yl)(4-(4-((5-(1-(difluoromethyl)-1H-pyrazol-4-yl)-4-(3-hydroxypiperidin-1-yl)pyridin-2-yl)amino)pyrimidin-2-yl)-3-fluoro-5-methoxyphenyl)methanone], the IC50 was at most 10 nM.

In the case of `COc1cc(F)cc(F)c1-c1nc(Nc2cc(N3CCC[C@H](N)C3)c(-c3cnn(C(F)F)c3)cn2)ccc1C#N` [Example 310, 6-((4-((S)-3-aminopiperidin-1-yl)-5-(1-(difluoromethyl)-1H-pyrazol-4-yl)pyridin-2-yl)amino)-2-(2,4-difluoro-6-methoxyphenyl)nicotinonitrile hydrochloride], the IC50 was at most 10 nM.

For `COc1cc(F)cc(F)c1-c1nccc(Nc2cc(N3CCC[C@H](N)C3)c(-c3cnn(C(F)F)c3)cn2)n1` [Example 108, (S)-N-(4-(3-aminopiperidin-1-yl)-5-(1-(difluoromethyl)-1H-pyrazol-4-yl)pyridin-2-yl)-2-(2,4-difluoro-6-methoxyphenyl)pyrimidin-4-amine hydrochloride], the IC50 was at most 10 nM.

On to `COc1cccc(F)c1-c1nccc(Nc2cc(N3CC[C@H](N)[C@H](C)C3)c(-c3cnn(C(F)F)c3)cn2)n1` [Example 297, N-(4-((3R,4S)-4-amino-3-methylpiperidin-1-yl)-5-(1-(difluoromethyl)-1H-pyrazol-4-yl)pyridin-2-yl)-2-(2-fluoro-6-methoxyphenyl)pyrimidin-4-amine hydrochloride], for which the IC50 is at most 10 nM.

Take `COc1cccc(F)c1-c1nccc(Nc2cc(N3CCC[C@H](N)C3)c(-c3cnn(C(F)(F)F)c3)cn2)n1` [Example 107, (S)-N-(4-(3-aminopiperidin-1-yl)-5-(1-(trifluoromethyl)-1H-pyrazol-4-yl)pyridin-2-yl)-2-(2-fluoro-6-methoxyphenyl)pyrimidin-4-amine hydrochloride]: the IC50 was at most 10 nM.

For `COc1cccc(F)c1-c1nc(Nc2cc(N3CC[C@@H](C)[C@H](N)C3)c(-c3cnn(C(F)F)c3)cn2)ccc1C#N` [Example 337, 6-((4-((3S,4R)-3-amino-4-methylpiperidin-1-yl)-5-(1-(difluoromethyl)-1H-pyrazol-4-yl)pyridin-2-yl)amino)-2-(2-fluoro-6-methoxyphenyl)-nicotinonitrile hydrochloride], the concentration for half-maximal inhibition (IC50) was at most 10 nM.

In the case of `COc1cccc(F)c1-c1nccc(Nc2cc(N3CCC[C@H](N)C3)c(-c3ccc(F)c(C)c3)cn2)n1` [Example 282, (S)-N-(4-(3-aminopiperidin-1-yl)-5-(4-fluoro-3-methylphenyl)pyridin-2-yl)-2-(2-fluoro-6-methoxyphenyl)pyrimidin-4-amine hydrochloride], the 50% inhibitory concentration (IC50) is at most 10 nM.

`COc1cc(CN(C)C)cc(F)c1-c1nccc(Nc2cc(N3CCC[C@H](N)C3)c(C#CC3CCOCC3)cn2)n1` [Example 106, (S)-N-(4-(3-aminopiperidin-1-yl)-5-((tetrahydro-2H-pyran-4-yl)ethynyl)pyridin-2-yl)-2-(4-((dimethylamino)methyl)-2-fluoro-6-methoxyphenyl)pyrimidin-4-amine hydrochloride]: the IC50 is at most 10 nM.

On to `COc1cccc(F)c1-c1nccc(Nc2cc(N3CCC[C@H](N)C3)c(-c3ccc4c(c3)CCC(=O)N4C)cn2)n1` [Example 263, (S)-6-(4-(3-aminopiperidin-1-yl)-6-((2-(2-fluoro-6-methoxyphenyl)pyrimidin-4-yl)amino)pyridin-3-yl)-1-methyl-3,4-dihydroquinolin-2(1H)-one hydrochloride], for which the 50% inhibitory concentration (IC50) was at most 10 nM.

On to `COc1cccc(F)c1-c1nccc(Nc2cc(N3C[C@@H](N)C[C@@H](C(F)(F)F)C3)c(-c3cnn(C(F)F)c3)cn2)n1` [Example 305, N-(4-((3S,5R)-3-amino-5-(trifluoromethyl)piperidin-1-yl)-5-(1-(difluoromethyl)-1H-pyrazol-4-yl)pyridin-2-yl)-2-(2-fluoro-6-methoxyphenyl)pyrimidin-4-amine hydrochloride], for which the IC50 was at most 10 nM.

As for `COc1cc(F)cc(F)c1-c1nccc(Nc2cc(N3CCC[C@H](N)C3)c(C#CC3(O)CCOCC3)cn2)n1` [Example 312, (S)-4-((4-(3-aminopiperidin-1-yl)-6-((2-(2,4-difluoro-6-methoxyphenyl)pyrimidin-4-yl)amino)pyridin-3-yl)ethynyl)tetrahydro-2H-pyran-4-ol], the half-inhibitory concentration (IC50) is at most 10 nM.

With `COc1cccc(F)c1-c1nc(Nc2cc(N3CCC[C@H](N)C3)c(-c3cnn(CC4CC4)c3)cn2)ccc1C#N` [Example 330, 6-((4-((S)-3-aminopiperidin-1-yl)-5-(1-(cyclopropylmethyl)-1H-pyrazol-4-yl)pyridin-2-yl)amino)-2-(2-fluoro-6-methoxyphenyl)nicotinonitrile hydrochloride], the IC50 was at most 10 nM.

Consider `COc1cccc(F)c1-c1nccc(Nc2cc(N3CCC[C@H](O)C3)c(-c3ccc(CN4CCC(N(C)C)C4)nc3)cn2)n1` (stereo partly drawn) [Example 48, (3S)-1-(6′-((3-(dimethylamino)pyrrolidin-1-yl)methyl)-6-((2-(2-fluoro-6-methoxyphenyl)pyrimidin-4-yl)amino)-[3,3′-bipyridin]-4-yl)piperidin-3-ol], for which the IC50 is at most 10 nM.

On to `COc1cccc(F)c1-c1nccc(Nc2cc(N3CCC[C@H](N)C3)c(-c3cccc(C(C)=O)c3)cn2)n1` [Example 291, (S)-1-(3-(4-(3-aminopiperidin-1-yl)-6-((2-(2-fluoro-6-methoxyphenyl)pyrimidin-4-yl)amino)pyridin-3-yl)phenyl)ethan-1-one hydrochloride], for which the 50% inhibitory concentration (IC50) was at most 10 nM.

For `COCCn1cc(-c2cnc(Nc3ccnc(-c4c(F)cccc4OC)n3)cc2N2CCC[C@H](N)C2)cn1` [Example 91, (S)-N-(4-(3-aminopiperidin-1-yl)-5-(1-(2-methoxyethyl)-1H-pyrazol-4-yl)pyridin-2-yl)-2-(2-fluoro-6-methoxyphenyl)pyrimidin-4-amine hydrochloride], the IC50 is at most 10 nM.

As to `COc1cccc(F)c1-c1nccc(Nc2cc(N3CC[C@@H](F)[C@H](O)C3)c(-c3cnn(C4CCOCC4)c3)cn2)n1` [Example 94, (3R,4R)-4-fluoro-1-(2-((2-(2-fluoro-6-methoxyphenyl)pyrimidin-4-yl)amino)-5-(1-(tetrahydro-2H-pyran-4-yl)-1H-pyrazol-4-yl)pyridin-4-yl)piperidin-3-ol], the IC50 was at most 10 nM.

Consider `COc1cc(F)cc(F)c1-c1nc(Nc2cc(N3CC[C@@H](F)[C@H](N)C3)c(-c3cnn(C(F)F)c3)cn2)ccc1N` [Example 216, N^2-(4-((3R,4R)-3-amino-4-fluoropiperidin-1-yl)-5-(1-(difluoromethyl)-1H-pyrazol-4-yl)pyridin-2-yl)-6-(2,4-difluoro-6-methoxyphenyl)pyridin-2,5-diamine hydrochloride], for which the IC50 was at most 10 nM.
